Experimental data taken from PMC11928584, “H105A peptide eye drops promote photoreceptor survival in murine and human models of retinal degeneration” (Communications Medicine, 2025).
Where a SMILES comes first, the peptide text is derived from it.

Tests used:
[1] = test system: photoreceptors of rd10 mice; test: ONL thickness (histology, spider plot), rd10 mice; assay type: in vivo, mouse; details: for OS length and ONL thickness vs vehicle-treated or untreated eyes: daily eye drops, P21
Protocol: Both eyes were oriented before enucleation to allow sectioning along the dorsal/ventral axis. Enucleated eyes from rd10 and rd10/Serpinf1^-/- mice were incised in the cornea and fixed in 2.5% glutaraldehyde for 20 min and then in 10% neutral buffered formalin at 4 °C for at least 48 h, followed by paraffin embedding, sectioning, and staining with either H&E or immunofluorescence procedures. Slides containing retinal sections were deparaffinized by immersing the slides in various subsequent ethanol dilutions(100%, 95%,70% and 50%), then rinsed with phosphate-buffered saline, pH 7.4 (PBS, Quality Biological, 119-069-101), followed by incubation in blocking buffer containing 0.5% normal donkey serum (Abcam, ab7475), 0.5% bovine serum albumin (BSA, GoldBio, A-420-100), 0.1% Triton X-100 (Sigma, T8787-100) in PBS pH 7.4 for 2 h at room temperature. For fluorescence microscopy, antibodies, and 0.1 µg/ml DAPI were used to immunostain and counterstain the nuclei, respectively. Antibodies used in the study are listed in Supplementary Table 3. Images were acquired using a ZEIS 700 confocal microscope. Fluorescence intensity was quantified using ImageJ, and a rectangle was selected around regions of interest (ROIs), channels were split for multiple antibodies, threshold was adjusted, noise was de-speckled, and fluorescence intensity was measured.
To generate spider plots, the ONL thickness was measured from images passing through the optic nerve (ON) acquired with light microscopy of the retina sections stained with H&E or images of retina sections stained with DAPI with a dorsal-ventral orientation. The ONL thickness in the entire retina sections was measured at 5 different positions from both sides of the ON using ImageJ[28]. Alternatively, for DAPI stained images, a customed macro implemented in ImageJ was used to select only the ONL.
Fig. 4 Effect of eyedrops of 17-mer and H105A peptides on photoreceptor morphology of rd10 and rd10/Serpinf1^-/- mice. a Illustration of the experimental timeline of peptide application. RE and LE refer to the right and left eyes, respectively. Histological Evaluation. Representative microphotographs of retina sections from rd10 (b) and rd10/Serpinf1^-/- (c) mice treated with 17-mer, H105A, or R99A peptides at 1 mg/ml, or with vehicle (HBSS), compared to wild type C57BL/6 J mice. Sections were stained with hematoxylin and eosin. Spider Plot illustrate the thickness of the outer nuclear layer (ONL) in rd10 (d) and rd10/Serpinf1^-/- (e) mice. Five retinas (n = 5) per group were analyzed and each data point represents the average ± SD per location relative to the optic nerve (ON), analyzed using One-way ANOVA with Šídák’s multiple comparisons test. […]

[2] = test system: PEDF-R; details: cited from earlier work

| SMILES | OS length and ONL thickness vs vehicle-treated or untreated eyes [1] | affinity for PEDF-R [2] | ONL thickness ([1]; daily eye drops 5 µl of 1 mg/ml P15-P24, assessed P25) | ONL thickness ([1]; eye drops every other day P15-P23, assessed P25) |
| --- | --- | --- | --- | --- |
| CC[C@H](C)[C@H](NC(=O)[C@H](CC(C)C)NC(=O)[C@H](CC(=O)O)NC(=O)[C@H](Cc1ccc(O)cc1)NC(=O)[C@H](Cc1ccc(O)cc1)NC(=O)[C@H](CC(C)C)NC(=O)[C@H](C)NC(=O)[C@H](CCCNC(=N)N)NC(=O)[C@H](Cc1c[nH]cn1)NC(=O)[C@@H](NC(=O)[C@@H](NC(=O)[C@H](CO)NC(=O)[C@H](CCC(=O)O)NC(=O)[C@@H](NC(=O)[C@H](C)NC(=O)[C@@H](N)CCC(N)=O)[C@@H](C)O)[C@@H](C)CC)[C@@H](C)CC)C(=O)N[C@@H](CO)C(=O)O [R99A] (H-QATESIIHRALYYDLIS-OH) | no effect | lacks PEDF-R affinity |  |  |
| CC[C@H](C)[C@H](NC(=O)[C@H](CC(C)C)NC(=O)[C@H](CC(=O)O)NC(=O)[C@H](Cc1ccc(O)cc1)NC(=O)[C@H](Cc1ccc(O)cc1)NC(=O)[C@H](CC(C)C)NC(=O)[C@H](C)NC(=O)[C@H](CCCNC(=N)N)NC(=O)[C@H](C)NC(=O)[C@@H](NC(=O)[C@@H](NC(=O)[C@H](CO)NC(=O)[C@H](CCC(=O)O)NC(=O)[C@@H](NC(=O)[C@H](CCCNC(=N)N)NC(=O)[C@@H](N)CCC(N)=O)[C@@H](C)O)[C@@H](C)CC)[C@@H](C)CC)C(=O)N[C@@H](CO)C(=O)O [H105A] (H-QRTESIIARALYYDLIS-OH) | longer OS and thicker outer nuclear layer | have affinity for PEDF-R | a rescue in the ONL thickness | a rescue in the ONL thickness |
